Like-named read-outs stand apart in the source and are kept apart here. Each block holds one compound with its values, some of them ahead of it. Starred links: 1 amine or outer side, 2 acyl side, 3 side chain; linkers in the order of their positions; H or OH if unused. Positions of bridges follow the written chain, without caps; N, C: chain ends. Residues, ends and D or L forms follow the SMILES beside them. *: point of attachment. C18 diacid = O=C(O)CCCCCCCCCCCCCCCCC(=O)*; γGlu = O=C(O)[C@H](CCC(=O)[*:2])N[*:1]; AEEA = NCCOCCOCC(=O)O
Test: PK of CNP compounds after i.v. and s.c. administration to rats
Conditions: male, Sprague Dawley, rat, in vivo
Procedure: In order to assess the i.v. and s.c. PK/PD profile of CNP compounds of the present invention, formulations of CNP compounds were administered to rats, blood samples taken and exposure and cGMP response measured.
Quantitative plasma analysis of CNP-compounds: Plasma concentrations of CNP compounds were assayed by plasma protein precipitation and analysed by turboflow liquid chromatography mass spectrometry (TF-LC-MS). Calibrators were prepared by spiking either blank rat or minipig plasma with the relevant CNP compound in the range from 0.5 to 2000 nM. Calibrators, plasma blanks or study samples were prepared for TF-LC-MS by protein precipitation by adding three or four volumes of either ethanol or methanol containing 20 nM of internal standard to one volume of sample. For some compounds, formic acid was added to the precipitation reagent (the final concentration was 1% v/v). After the addition of the precipitation reagent, the mixture was centrifuged at 6200 rpm at 4° C. for 30 minutes. After centrifugation, one volume of supernatant was mixed with two volumes of water (with 1% v/v formic acid). The mixture was analysed by TF-LC-MS using a Cyclone turboflow column (0.5×50 mm, ThermoFisher Scientific) and either a XBridge Protein BEH C4 3.5 μm 300 Åor a XBridge Protein BEH C18 3.5 μm 130 Åanalytical column (both were 50×2.1 mm and obtained from Waters). […] The mass spectrometer was operated in positive ionisation mode. A TSQ Altis mass spectrometer (ThermoFisher Scientific) was used as detector in selected reaction monitoring mode (specific transition were optimised for each CNP compound). Linear calibration curves (weighed 1/×2) were used for calculating the concentration in the plasma samples. Quality control samples were included. The deviation between nominal and calculated concentration in the calibrators and quality control samples were below 15%.
Animals and dosing: Groups of 4-6 rats (male, Sprague Dawley, 350 g at arrival, Janvier, France) per compound and route of administration were dosed with a CNP compound formulated either in A) 8 mM sodium phosphate, 250 mM glycerol, 0.007% polysorbate 20, pH 7.4 or B) 5 mM sodium acetate, 250 mM glycerol, 0.007% polysorbate 20, pH 4.0 depending on the respective compound. S.c. dose was 300 nmol/kg, at a concentration of […] resulting in a dosing volume of 0.3 mL/kg, whereas i.v. dose was 100 nmol/kg, at a concentration of […] resulting in a dosing volume of 1 mL/kg.
Sampling: Sublingual blood samples of 250 uL were collected from unanaesthetised rats in EDTA-coated vials (Microvette 600K3E ref #15.1673.100 Sarstedt) at baseline (-1 h before dosing) as well as 5 min (only i.v. dosed groups), 2 h, 6 h, 24 h, 48 h and 72 h (only for exposure analysis) post-dosing. The blood samples were quickly stored on ice and centrifuged (4° C., 8000 RPM, 5 min) within 10 min of collection. Plasma samples of 50 μL were transferred to each micronic tube for either exposure or cGMP analysis, kept on dry ice and stored in a freezer (−20° C.). Rats had access to food (Altromin) and tap water ad libitum.
Analysis: PK parameters were calculated by non-compartment analysis (NCA) using software Phoenix WinNonlin (ver. 8.1 or later, Certara) for each animal. Clearance (Cl) was calculated as: Dose/AUCinf (linear up, log down). […] Bioavailability was calculated as dose normalized AUC's: (AUC(sc)/Dose(sc))/(AUC(iv)/Dose(iv)). Values in the table are means from individual animals (n=4-6 individual animals). The subsequent plots for cGMP plasma concentration versus time are (Y-axis) mean cGMP concentration (n=4-6 individual animals) after IV dosing and (X-axis) nominal plasma sampling time.
Plasma cGMP are reported as the mean.

[1] = iv, i.v., about 100 nmol/kg, read-out: Cl (L/hr/kg), i.v. administration (converted)
[2] = iv, i.v., about 100 nmol/kg, read-out: T½ (hr), i.v. administration (converted)
[3] = sc, s.c. bioavailability, about 300 nmol/kg, read-out: F (%), s.c. administration
[4] = sc, s.c., about 300 nmol/kg, read-out: T½ (hr), s.c. administration (converted)

Structure (SMILES): CC[C@H](C)[C@@H]1NC(=O)[C@H](CCCNC(=N)N)NC(=O)[C@H](CCC(=O)O)NC(=O)[C@H](CC(C)C)NC(=O)[C@H](CCCCN)NC(=O)[C@H](CC(C)C)NC(=O)CNC(=O)[C@H](Cc2ccccc2)NC(=O)[C@@H](NC(=O)CNC(=O)[C@H](CCCCN)NC(=O)[C@H](CO)NC(=O)[C@H](CC(C)C)NC(=O)CNC(=O)[C@H](CCCCN)NC(=O)[C@H](CCCCN)NC(=O)[C@H](CCC(N)=O)NC(=O)[C@H](C)NC(=O)CNC(=O)[C@H](CCCCN)NC(=O)[C@H](Cc2ccc(O)cc2)NC(=O)[C@H](CCCCN)NC(=O)[C@H](CCCNC(=N)N)NC(=O)[C@H](C)NC(=O)COCCOCCNC(=O)COCCOCCNC(=O)CC[C@H](NC(=O)CCCCCCCCCCCCCCCCC(=O)O)C(=O)O)CSSC[C@@H](C(=O)O)NC(=O)CNC(=O)[C@H](CC(C)C)NC(=O)CNC(=O)[C@H](CO)NC(=O)[C@H](CC(C)C)NC(=O)[C@H](CO)NC(=O)CNC1=O [compound 0776] ({C18 diacid-γGlu-AEEA-AEEA}-ARKYKGAQKKGLSKGCFGLKLERIGSLSGLGC-OH; disulfide 16-32)
- clearance (iv, 100 nmol/kg): 0.00613 L/h/kg
- half-life (iv, 100 nmol/kg): 10.7 h
- bioavailability (sc, 300 nmol/kg): 7.35%
- half-life (sc, 300 nmol/kg): 5.63 h

Structure (SMILES): CC[C@H](C)[C@@H]1NC(=O)[C@H](CCCNC(=N)N)NC(=O)[C@H](CC(=O)O)NC(=O)[C@H](CC(C)C)NC(=O)[C@@H]2CCCN2C(=O)[C@H](CC(C)C)NC(=O)CNC(=O)[C@H](Cc2ccccc2)NC(=O)[C@@H](NC(=O)CNC(=O)[C@H](CCCCN)NC(=O)[C@H](CO)NC(=O)[C@H](CC(C)C)NC(=O)CNC(=O)[C@H](CCCCN)NC(=O)[C@H](CCCCN)NC(=O)[C@H](CCC(N)=O)NC(=O)[C@H](C)NC(=O)CNC(=O)[C@H](CCC(=O)O)NC(=O)[C@H](Cc2ccc(O)cc2)NC(=O)COCCOCCNC(=O)COCCOCCNC(=O)CC[C@H](NC(=O)CCCCCCCCCCCCCCCCC(=O)O)C(=O)O)CSSC[C@@H](C(=O)O)NC(=O)CNC(=O)[C@H](CC(C)C)NC(=O)CNC(=O)[C@H](CO)NC(=O)[C@H](CC(C)C)NC(=O)[C@H](CO)NC(=O)CNC1=O [compound 1225] ({C18 diacid-γGlu-AEEA-AEEA}-YEGAQKKGLSKGCFGLPLDRIGSLSGLGC-OH; disulfide 13-29)
- clearance [1]: 0.0103 L/h/kg
- half-life [2]: 5.03 h
- bioavailability [3]: 61.2%
- half-life [4]: 5.1 h

Structure (SMILES): CC[C@H](C)[C@@H]1NC(=O)[C@H](CCCNC(=N)N)NC(=O)[C@H](CC(=O)O)NC(=O)[C@H](CC(C)C)NC(=O)[C@@H]2CCCN2C(=O)[C@H](CC(C)C)NC(=O)CNC(=O)[C@H](Cc2ccccc2)NC(=O)[C@@H](NC(=O)CNC(=O)[C@H](CO)NC(=O)[C@H](CO)NC(=O)[C@H](CC(C)C)NC(=O)CNC(=O)[C@H](CCCCN)NC(=O)[C@H](CCCCN)NC(=O)[C@H](CCC(N)=O)NC(=O)[C@H](C)NC(=O)CNC(=O)[C@H](CCC(=O)O)NC(=O)[C@H](Cc2ccc(O)cc2)NC(=O)COCCOCCNC(=O)COCCOCCNC(=O)CC[C@H](NC(=O)CCCCCCCCCCCCCCCCC(=O)O)C(=O)O)CSSC[C@@H](C(=O)O)NC(=O)CNC(=O)[C@H](CC(C)C)NC(=O)CNC(=O)[C@H](CO)NC(=O)[C@H](CC(C)C)NC(=O)[C@H](CO)NC(=O)CNC1=O [compound 1227] ({C18 diacid-γGlu-AEEA-AEEA}-YEGAQKKGLSSGCFGLPLDRIGSLSGLGC-OH; disulfide 13-29)
- clearance [1]: 0.0168 L/h/kg
- half-life [2]: 3.56 h

Structure (SMILES): CC[C@H](C)[C@@H]1NC(=O)[C@H](CCCNC(=N)N)NC(=O)[C@H](CC(=O)O)NC(=O)[C@H](CC(C)C)NC(=O)[C@@H]2CCCN2C(=O)[C@H](CC(C)C)NC(=O)CNC(=O)[C@H](Cc2ccccc2)NC(=O)[C@@H](NC(=O)CNC(=O)[C@H](CO)NC(=O)[C@H](CO)NC(=O)[C@H](CC(C)C)NC(=O)CNC(=O)[C@H](CCCCN)NC(=O)[C@H](CCCCN)NC(=O)[C@H](CCC(N)=O)NC(=O)[C@H](C)NC(=O)CNC(=O)[C@H](CCCCN)NC(=O)[C@H](Cc2ccc(O)cc2)NC(=O)COCCOCCNC(=O)COCCOCCNC(=O)CC[C@H](NC(=O)CCCCCCCCCCCCCCCCC(=O)O)C(=O)O)CSSC[C@@H](C(=O)O)NC(=O)CNC(=O)[C@H](CC(C)C)NC(=O)CNC(=O)[C@H](CO)NC(=O)[C@H](CC(C)C)NC(=O)[C@H](CO)NC(=O)CNC1=O [compound 1233] ({C18 diacid-γGlu-AEEA-AEEA}-YKGAQKKGLSSGCFGLPLDRIGSLSGLGC-OH; disulfide 13-29)
- clearance [1]: 0.0246 L/h/kg
- half-life [2]: 1.42 h
- bioavailability [3]: 33.8%
- half-life [4]: 3.57 h

- clearance (iv, 100 nmol/kg): 0.0115 L/h/kg
- half-life (iv, 100 nmol/kg): 6.2 h
- bioavailability (sc, 300 nmol/kg): 65.8%
- half-life (sc, 300 nmol/kg): 6.28 h
Structure (SMILES): CC[C@H](C)[C@@H]1NC(=O)[C@H](CCCNC(=N)N)NC(=O)[C@H](CC(=O)O)NC(=O)[C@H](CC(C)C)NC(=O)[C@H](CCCCN)NC(=O)[C@H](CC(C)C)NC(=O)CNC(=O)[C@H](Cc2ccccc2)NC(=O)[C@@H](NC(=O)CNC(=O)[C@H](CCCCN)NC(=O)[C@H](CO)NC(=O)[C@H](CC(C)C)NC(=O)CNC(=O)[C@H](CCCCN)NC(=O)[C@H](CCCCN)NC(=O)[C@H](CCC(N)=O)NC(=O)[C@H](C)NC(=O)CNC(=O)[C@H](Cc2c[nH]cn2)NC(=O)[C@H](CCC(=O)O)NC(=O)COCCOCCNC(=O)COCCOCCNC(=O)CC[C@H](NC(=O)CCCCCCCCCCCCCCCCC(=O)O)C(=O)O)CSSC[C@@H](C(=O)O)NC(=O)CNC(=O)[C@H](CC(C)C)NC(=O)CNC(=O)[C@H](CO)NC(=O)[C@H](CC(C)C)NC(=O)[C@H](CO)NC(=O)CNC1=O [compound 1235]

Structure (SMILES): CC[C@H](C)[C@@H]1NC(=O)[C@H](CCCNC(=N)N)NC(=O)[C@H](CC(=O)O)NC(=O)[C@H](CC(C)C)NC(=O)[C@@H]2CCCN2C(=O)[C@H](CC(C)C)NC(=O)CNC(=O)[C@H](Cc2ccccc2)NC(=O)[C@@H](NC(=O)CNC(=O)[C@H](CO)NC(=O)[C@H](CO)NC(=O)[C@H](CC(C)C)NC(=O)CNC(=O)[C@H](CCCCN)NC(=O)[C@H](CCCCN)NC(=O)[C@H](CCC(N)=O)NC(=O)[C@H](C)NC(=O)CNC(=O)[C@H](Cc2c[nH]cn2)NC(=O)[C@H](Cc2ccc(O)cc2)NC(=O)COCCOCCNC(=O)COCCOCCNC(=O)CC[C@H](NC(=O)CCCCCCCCCCCCCCCCC(=O)O)C(=O)O)CSSC[C@@H](C(=O)O)NC(=O)CNC(=O)[C@H](CC(C)C)NC(=O)CNC(=O)[C@H](CO)NC(=O)[C@H](CC(C)C)NC(=O)[C@H](CO)NC(=O)CNC1=O [compound 1241] ({C18 diacid-γGlu-AEEA-AEEA}-YHGAQKKGLSSGCFGLPLDRIGSLSGLGC-OH; disulfide 13-29)
- clearance [1]: 0.0164 L/h/kg
- half-life [2]: 2.78 h

Structure (SMILES): CC[C@H](C)[C@@H]1NC(=O)[C@H](CCCNC(=N)N)NC(=O)[C@H](CC(=O)O)NC(=O)[C@H](CC(C)C)NC(=O)[C@@H]2CCCN2C(=O)[C@H](CC(C)C)NC(=O)CNC(=O)[C@H](Cc2ccccc2)NC(=O)[C@@H](NC(=O)CNC(=O)[C@H](CO)NC(=O)[C@H](CO)NC(=O)[C@@H](NC(=O)CNC(=O)[C@@H](NC(=O)[C@H](CCCCN)NC(=O)[C@H](CCC(N)=O)NC(=O)[C@H](C)NC(=O)CNC(=O)[C@H](Cc2c[nH]cn2)NC(=O)[C@H](Cc2ccc(O)cc2)NC(=O)[C@H](CCCCN)NC(=O)[C@H](CCCNC(=N)N)NC(=O)[C@H](C)NC(=O)COCCOCCNC(=O)COCCOCCNC(=O)CC[C@H](NC(=O)CC[C@H](NC(=O)CCCCCCCCCCCCCCCCC(=O)O)C(=O)O)C(=O)O)[C@@H](C)O)C(C)C)CSSC[C@@H](C(=O)O)NC(=O)CNC(=O)[C@H](CC(C)C)NC(=O)CNC(=O)[C@H](CO)NC(=O)[C@H](CC(C)C)NC(=O)[C@H](CO)NC(=O)CNC1=O [compound 1354] ({C18 diacid-γGlu-γGlu-AEEA-AEEA}-ARKYHGAQKTGVSSGCFGLPLDRIGSLSGLGC-OH; disulfide 16-32)
- clearance [1]: 0.00652 L/h/kg
- half-life [2]: 7.56 h

— patent US20240209028A1, “CNP COMPOUNDS” (priority 2022, published 2024)
